Measurements as given in PubChem BioAssay (NCI).
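Method: 48-hour compound exposure of cells in 96-well plates, five concentrations, linear interpolation of endpoints. Here, GI50 denotes the concentration required for 50% inhibition of growth. TGI denotes the concentration required for complete inhibition of growth.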

Legend:
Assay in all cases: growth of human tumour cells (NCI), 48 h
OVCAR-8 ovarian = tested on: OVCAR-8 ovarian
SK-OV-3 ovarian = tested on: SK-OV-3 ovarian
SF-295 CNS = tested on: SF-295 CNS
MDA-MB-435 = tested on: MDA-MB-435
SF-268 CNS = tested on: SF-268 CNS
A549 NSCLC = tested on: A549 NSCLC
HCC-2998 colon = tested on: HCC-2998 colon
OVCAR-4 ovarian = tested on: OVCAR-4 ovarian
M14 melanoma = tested on: M14 melanoma
UACC-257 melanoma = tested on: UACC-257 melanoma
SNB-19 CNS = tested on: SNB-19 CNS
HCT-116 colon = tested on: HCT-116 colon
CAKI-1 renal = tested on: CAKI-1 renal
A498 renal = tested on: A498 renal
T-47D breast = tested on: T-47D breast
RPMI-8226 leukemia = tested on: RPMI-8226 leukemia
MCF7 breast = tested on: MCF7 breast
KM12 colon = tested on: KM12 colon
OVCAR-5 ovarian = tested on: OVCAR-5 ovarian
SK-MEL-28 melanoma = tested on: SK-MEL-28 melanoma
NCI-H226 lung = tested on: NCI-H226 lung
IGROV1 ovarian = tested on: IGROV1 ovarian
SN12C renal = tested on: SN12C renal
TK-10 renal = tested on: TK-10 renal
HOP-62 NSCLC = tested on: HOP-62 NSCLC
DU-145 prostate = tested on: DU-145 prostate
LOX IMVI melanoma = tested on: LOX IMVI melanoma
NCI-H23 lung = tested on: NCI-H23 lung
UO-31 renal = tested on: UO-31 renal

CC(=O)OCCC/C(=C/c1cc2ccccc2c2ccccc12)[N+](=O)[O-]
GI50 (OVCAR-8 ovarian): 1610 nM | TGI (OVCAR-8 ovarian): 3210 nM | GI50 (SK-OV-3 ovarian): 2560 nM | TGI (SK-OV-3 ovarian): 7380 nM | GI50 (SF-295 CNS): 977 nM | TGI (SF-295 CNS): 2320 nM | GI50 (MDA-MB-435): 1460 nM | TGI (MDA-MB-435): 3160 nM | GI50 (SF-268 CNS): 1470 nM | TGI (SF-268 CNS): 2890 nM | GI50 (A549 NSCLC): 1840 nM | TGI (A549 NSCLC): 3740 nM | GI50 (HCC-2998 colon): 1640 nM | TGI (HCC-2998 colon): 3000 nM | GI50 (OVCAR-4 ovarian): 1750 nM | TGI (OVCAR-4 ovarian): 3290 nM | GI50 (M14 melanoma): 1560 nM | TGI (M14 melanoma): 2900 nM | GI50 (UACC-257 melanoma): 1430 nM | TGI (UACC-257 melanoma): 2760 nM | GI50 (SNB-19 CNS): 1660 nM | TGI (SNB-19 CNS): 3220 nM | GI50 (HCT-116 colon): 1480 nM | TGI (HCT-116 colon): 2800 nM | GI50 (CAKI-1 renal): 1210 nM | TGI (CAKI-1 renal): 2510 nM | GI50 (A498 renal): 1380 nM | TGI (A498 renal): 2720 nM | GI50 (T-47D breast): 384 nM | TGI (T-47D breast): 1870 nM | GI50 (RPMI-8226 leukemia): 1270 nM | TGI (RPMI-8226 leukemia): 5740 nM | GI50 (MCF7 breast): 545 nM | TGI (MCF7 breast): 1950 nM | GI50 (KM12 colon): 1560 nM | TGI (KM12 colon): 2890 nM | GI50 (OVCAR-5 ovarian): 1680 nM | TGI (OVCAR-5 ovarian): 3110 nM | GI50 (SK-MEL-28 melanoma): 1640 nM | TGI (SK-MEL-28 melanoma): 2990 nM | GI50 (NCI-H226 lung): 2040 nM | TGI (NCI-H226 lung): 5630 nM | GI50 (IGROV1 ovarian): 1060 nM | TGI (IGROV1 ovarian): 2810 nM | GI50 (SN12C renal): 1750 nM | TGI (SN12C renal): 3750 nM | GI50 (TK-10 renal): 1690 nM | TGI (TK-10 renal): 3140 nM | GI50 (HOP-62 NSCLC): 1910 nM | TGI (HOP-62 NSCLC): 3500 nM | GI50 (DU-145 prostate): 1260 nM | TGI (DU-145 prostate): 2510 nM | GI50 (LOX IMVI melanoma): 423 nM | TGI (LOX IMVI melanoma): 1080 nM | GI50 (NCI-H23 lung): 1570 nM | TGI (NCI-H23 lung): 3270 nM | GI50 (UO-31 renal): 1090 nM | TGI (UO-31 renal): 2300 nM
